# Assay results as given in patent publication US8309586B2, “Glucokinase activators and pharmaceutical compositions containing the same as an active ingredient” (LG Life Sciences Ltd., priority 2007, dated 2012).
# System: Glucokinase known as hexokinase IV (human GK isoform 1, pancreas form and human GK isoform 2, liver form)
# Test: Glucokinase enzymatic activity assay (G6PDH-coupled, NADH absorbance at 340 nm)
# Assay type: biochemical
# Conditions: 5 mM glucose, 1 mM ATP, 37 nM GK, 10 min at room temperature
# Summary of the method: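 His-tagged human GK isoform 1 (pancreas) or 2 (liver), E. coli-expressed and Ni-purified, 37 nM, with 5 mM glucose, 1 mM ATP, 1 mM NAD and G6PDH in 25 mM Hepes/KCl, 2 mM MgCl2, 1 mM DTT. Ran 10 min at room temperature, read as NADH at 340 nm. AC1.5 is the compound concentration giving 1.5-fold activity.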
row,Structure (SMILES),AC1.5 (the compound concentration at which the enzymatic activity is increased by 1.5 times) [nM]
1,"O=C(O)[C@@H]1CCCN1CC[C@@H]1CSC(c2cc3cc(Cl)cc(NC4CCCC4)c3[nH]2)=N1 [Example 107, (S)-1-{2-[(R)-2-(5-chloro-7-cyclopentylamino-1H-indol-2-yl)-4,5-dihydro-thiazol-4-yl]-ethyl}-pyrrolidine-2-carboxylic acid]",63
2,"CS(=O)(=O)CC[C@@H]1CSC(c2cc3cc(Cl)cc(NC4CCCC4)c3[nH]2)=N1 [Example 108, {5-chloro-2-[(R)-4-(2-methanesulfonyl-ethyl)-4,5-dihydro-thiazol-2-yl]-1H-indol-7-yl}-cyclopentyl-amine]",15
3,"CCOC(=O)c1c(C)ncn1CC[C@@H]1CSC(c2cc3cc(Cl)cc(NC4CCCC4)c3[nH]2)=N1 [Example 109, 3-{2-[(R)-2-(5-chloro-7-cyclopentylamino-1H-indol-2-yl)-4,5-dihydro-thiazol-4-yl]-ethyl}-5-methyl-3H-imidazole-4-carboxylic acid ethyl ester]",26
4,"Cc1ncn(CC[C@@H]2CSC(c3cc4cc(Cl)cc(NC5CCCC5)c4[nH]3)=N2)c1C(=O)O [Example 110, 3-{2-[(R)-2-(5-chloro-7-cyclopentylamino-1H-indol-2-yl)-4,5-dihydro-thiazol-4-yl]-ethyl}-5-methyl-3H-imidazole-4-carboxylic acid]",30
5,"O=C1CCCN1CC[C@@H]1CSC(c2cc3cc(Cl)cc(NC4CCCC4)c3[nH]2)=N1 [Example 111, 1-{2-[(R)-2-(5-chloro-7-cyclopentylamino-1H-indol-2-yl)-4,5-dihydro-thiazol-4-yl]-ethyl}-pyrrolidin-2-one]",11
6,"O=C(O)C1CCCN(CC[C@@H]2CSC(c3cc4cc(Cl)cc(NC5CCOCC5)c4[nH]3)=N2)C1 (stereo partly drawn) [Example 112, 1-(2-{(R)-2-[5-chloro-7-(tetrahydro-pyran-4-ylamino)-1H-indol-2-yl]-4,5-dihydro-thiazol-4-yl}-ethyl)-piperidine-3-carboxylic acid]",81
7,"O=C(c1ccco1)N1CCN(CC[C@@H]2CSC(c3cc4cc(Cl)cc(NC5CCOCC5)c4[nH]3)=N2)CC1 [Example 121, [4-(2-{(R)-2-[5-chloro-7-(tetrahydro-pyran-4-ylamino)-1H-indol-2-yl]-4,5-dihydro-thiazol-4-yl}-ethyl)-piperazin-1-yl]-furan-2-yl-methanone]",40
8,"Clc1cc(NC2CCOCC2)c2[nH]c(C3=N[C@H](CCN4CCN(c5cnccn5)CC4)CS3)cc2c1 [Example 122, (5-chloro-2-{(R)-4-[2-(2,3,5,6-tetrahydro-[1,2′]bipyrazinyl-4-yl)-ethyl]-4,5-dihydro-thiazol-2-yl}-1H-indol-7-yl)-(tetrahydropyran-4-yl)-amine]",60
9,"Clc1cc(NC2CCOCC2)c2[nH]c(C3=N[C@H](CCN4CCN(c5ncccn5)CC4)CS3)cc2c1 [Example 123, (5-chloro-2-{(R)-4-[2-(4-pyrimidin-2-yl-piperazin-1-yl)-ethyl]-4,5-dihydro-thiazol-2-yl}-1H-indol-7-yl)-(tetrahydro-pyran-4-yl)-amine]",62
10,"NCC[C@@H]1CSC(c2cc3cc(F)cc(NC4CCCC4)c3[nH]2)=N1 [Example 124, {2-[(R)-4-(2-amino-ethyl)-4,5-dihydro-thiazol-2-yl]-5-fluoro-1H-indol-7-yl}-cyclopentyl-amine]",24
11,"CC(=O)N1CCN(CC[C@@H]2CSC(c3cc4cc(F)cc(NC5CCCC5)c4[nH]3)=N2)CC1 [Example 125, 1-(4-{2-[(R)-2-(7-cyclopentylamino-5-fluoro-1H-indol-2-yl)-4,5-dihydro-thiazol-4-yl]-ethyl}-piperazin-1-yl)-ethanone]",23
12,"Fc1cc(NC2CCCC2)c2[nH]c(C3=N[C@H](CCN4CCOCC4)CS3)cc2c1 [Example 126, cyclopentyl-{5-fluoro-2-[(R)-4-(2-morpholin-4-yl-ethyl)-4,5-dihydro-thiazol-2-yl]-1H-indol-7-yl}-amine]",20
13,"CN(C)CC[C@@H]1CSC(c2cc3cc(F)cc(NC4CCCC4)c3[nH]2)=N1 [Example 127, cyclopentyl-{2-[(R)-4-(2-dimethylamino-ethyl)-4,5-dihydro-thiazol-2-yl]-5-fluoro-1H-indol-7-yl}-amine]",21
14,"Fc1cc(NC2CCCC2)c2[nH]c(C3=N[C@H](CCN4CCCC4)CS3)cc2c1 [Example 128, cyclopentyl-{5-fluoro-2-[(R)-4-(2-pyrrolidin-1-yl-ethyl)-4,5-dihydro-thiazol-2-yl]-1H-indol-7-yl}-amine]",16
15,"O=S1(=O)CCN(CC[C@@H]2CSC(c3cc4cc(F)cc(NC5CCCC5)c4[nH]3)=N2)CC1 [Example 129, cyclopentyl-(2-{(R)-4-[2-(1,1-dioxo-thiomorpholin-4-yl)-ethyl]-4,5-dihydro-thiazol-2-yl}-5-fluoro-1H-indol-7-yl)-amine]",67
16,"O=C1CN(CC[C@@H]2CSC(c3cc4cc(F)cc(NC5CCCC5)c4[nH]3)=N2)CCN1 [Example 130, 4-{2-[(R)-2-(7-cyclopentylamino-5-fluoro-1H-indol-2-yl)-4,5-dihydro-thiazol-4-yl]-ethyl}-piperazin-2-one]",14
17,"O=C(CO)N1CCN(CC[C@@H]2CSC(c3cc4cc(F)cc(NC5CCCC5)c4[nH]3)=N2)CC1 [Example 131, 1-(4-{2-[(R)-2-(7-cyclopentylamino-5-fluoro-1H-indol-2-yl)-4,5-dihydro-thiazol-4-yl]-ethyl}-piperazin-1-yl)-2-hydroxy-ethanone]",10
18,"CS(=O)(=O)CC[C@@H]1CSC(c2cc3cc(F)cc(NC4CCCC4)c3[nH]2)=N1 [Example 132, cyclopentyl-{5-fluoro-2-[(R)-4-(2-methanesulfonyl-ethyl)-4,5-dihydro-thiazol-2-yl]-1H-indol-7-yl}-amine]",13
19,"O=S1(=O)CCN(CC[C@@H]2CSC(c3cc4cc(F)cc(NC5CCOCC5)c4[nH]3)=N2)CC1 [Example 137, (2-{(R)-4-[2-(1,1-dioxo-thiomorpholin-4-yl)-ethyl]-4,5-dihydro-thiazol-2-yl}-5-fluoro-1H-indol-7-yl)-(tetrahydropyran-4-yl)-amine]",23
20,"CS(=O)(=O)CC[C@@H]1CSC(c2cc3cc(F)cc(NC4CCOCC4)c3[nH]2)=N1 [Example 138, (5-fluoro-2-[(R)-4-(2-methanesulfonyl-ethyl)-4,5-dihydro-thiazol-2-yl]-1H-indol-7-yl)-(tetrahydro-pyran-4-yl)-amine]",36
21,"O=C1CN(CC[C@@H]2CSC(c3cc4cc(F)cc(NC5CCOCC5)c4[nH]3)=N2)CCN1 [Example 139, 4-(2-{(R)-2-[5-fluoro-7-(tetrahydro-pyran-4-ylamino)-1H-indol-2-yl]-4,5-dihydro-thiazol-4-yl}-ethyl)-piperazin-2-one]",38
22,"O=C(CO)N1CCN(CC[C@@H]2CSC(c3cc4cc(F)cc(NC5CCOCC5)c4[nH]3)=N2)CC1 [Example 140, 1-[4-(2-{(R)-2-[5-fluoro-7-(tetrahydro-pyran-4-ylamino)-1H-indol-2-yl]-4,5-dihydro-thiazol-4-yl}-ethyl)-piperazin-1-yl]-2-hydroxy-ethanone]",52
23,"COCC[C@@H]1CSC(c2cc3cccc(NC4CCCC4)c3[nH]2)=N1 [Example 141, cyclopentyl-{2-[(R)-4-(2-methoxy-ethyl)-4,5-dihydro-thiazol-2-yl]-1H-indol-7-yl}-amine]",24
24,"CN(C)CC[C@@H]1CSC(c2cc3cccc(NC4CCCC4)c3[nH]2)=N1 [Example 142, cyclopentyl-{2-[(R)-4-(2-dimethylamino-ethyl)-4,5-dihydro-thiazol-2-yl]-1H-indol-7-yl}-amine]",85
25,"c1cc(NC2CCCC2)c2[nH]c(C3=N[C@H](CCN4CCOCC4)CS3)cc2c1 [Example 143, cyclopentyl-{2-[(R)-4-(2-morpholin-4-yl-ethyl)-4,5-dihydro-thiazol-2-yl]-1H-indol-7-yl}-amine]",37
26,"c1cc(NC2CCCC2)c2[nH]c(C3=N[C@H](CCN4CCCCC4)CS3)cc2c1 [Example 144, cyclopentyl-{2-[(R)-4-(2-piperidin-1-yl-ethyl)-4,5-dihydro-thiazol-2-yl]-1H-indol-7-yl}-amine]",122
27,"CS(=O)(=O)CC[C@@H]1CSC(c2cc3cccc(NC4CCOCC4)c3[nH]2)=N1 [Example 145, {2-[(R)-4-(2-methanesulfonyl-ethyl)-4,5-dihydro-thiazol-2-yl]-1H-indol-7-yl}-(tetrahydro-pyran-4-yl)-amine]",138
28,"COc1cc(NC2CCCC2)c2[nH]c(C3=N[C@H](CCN4CCN(C(=O)CO)CC4)CS3)cc2c1 [Example 146, 1-(4-{2-[(R)-2-(7-cyclopentylamino-5-methoxy-1H-indol-2-yl)-4,5-dihydro-thiazol-4-yl]-ethyl}-piperazin-1-yl)-2-hydroxy-ethanone]",29
